For this assay, the system named is mice. The settings on record: mouse, in vivo.

This note sets out measurements from patent US7208466B1 (priority 1999, dated 2007).

For the compound `CN1CC[C@]23c4c5ccc(O)c4O[C@H]2[C@@H](O)C=C[C@H]3[C@H]1C5` [morphine], the “period over which effect declines / returns to control levels” value was found to be 5 h and the “time of maximal effect” value turned out to be 1 h.
